The text below walks through data of patent US20240317708A1, “INHIBITORS OF TRANSGLUTAMINASES” (ZEDIRA GMBH, priority 2021, published 2024).

The target in data set [1] is T1, recombinant human transglutaminase 2 (Homo sapiens, UniProt P21980).
T1 construct: purchased Zedira T022
T1 sequence (P21980 1-687): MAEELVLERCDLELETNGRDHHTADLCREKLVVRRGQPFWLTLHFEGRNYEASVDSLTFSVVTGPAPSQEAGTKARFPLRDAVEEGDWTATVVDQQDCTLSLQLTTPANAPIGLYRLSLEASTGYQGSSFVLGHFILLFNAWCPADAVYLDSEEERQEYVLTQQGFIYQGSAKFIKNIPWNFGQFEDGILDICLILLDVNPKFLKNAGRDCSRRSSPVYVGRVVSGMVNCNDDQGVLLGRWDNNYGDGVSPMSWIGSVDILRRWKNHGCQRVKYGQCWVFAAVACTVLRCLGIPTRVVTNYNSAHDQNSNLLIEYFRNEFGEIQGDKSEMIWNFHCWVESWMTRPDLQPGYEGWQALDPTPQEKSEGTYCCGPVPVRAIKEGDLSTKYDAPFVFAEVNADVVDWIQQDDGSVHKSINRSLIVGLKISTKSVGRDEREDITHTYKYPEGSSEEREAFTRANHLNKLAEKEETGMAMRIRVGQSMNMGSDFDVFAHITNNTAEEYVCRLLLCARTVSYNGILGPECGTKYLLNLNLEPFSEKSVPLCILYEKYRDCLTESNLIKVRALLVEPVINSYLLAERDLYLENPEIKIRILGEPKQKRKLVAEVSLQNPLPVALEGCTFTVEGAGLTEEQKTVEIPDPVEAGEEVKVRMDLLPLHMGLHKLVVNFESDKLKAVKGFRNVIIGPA
Put plainly: Transglutaminase assay (dansylcadaverine incorporation into dimethylcasein, DCC-assay). The format is biochemical. Particulars: for IC50: recombinant human TG2 10 nM, dansylcadaverine/dimethylcasein, 37° C. As to the method:
For the determination of potency of inhibitors against tissue transglutaminase, the incorporation of dansylcadaverine into dimethylcasein (Zedira product T036, Lorand et al., Anal Biochem, 1971, 44:221-31) was measured using recombinant human transglutaminase 2 (Zedira Product T022).
The tissue transglutaminase is diluted in buffer (50 mM Tris-HCl, 7.5 mM CaCl2, 150 mM NaCl, pH=7.4). The final concentration of TG2 in the assay is 10 nM.
A 10 mM inhibitor stock solution is prepared in DMSO, and from this a serial 1:2-fold dilution series is prepared also in DMSO. Each of the initial dilutions is subsequently diluted 1:50-fold with buffer (50 mM Tris-HCl, 7.5 mM CaCl2, 150 mM NaCl, pH=7.4) to yield the final working dilutions containing 2% (v/v) DMSO.
15 μl of inhibitor working dilution are added per well of a 96 well microtiter plate. As control, 15 μl of a 2% (v/v) DMSO solution prepared using the buffer mentioned above are added per well.
Immediately before starting the assay, 600 μl transglutaminase working solution are added to 11.4 ml assay buffer (50 mM Tris-HCl, 10 mM CaCl2, 10 mM glutathione, 2.5% glycerol, 16.7 μM dansylcadaverine, 4 μM N,N-dimethylcasein, 200 mM NaCl, pH=8.0). 285 μl of this reaction mix are added per well containing the inhibitor.
Increase in fluorescence is measured using λex=330 nm and λem=500 nm at 37° C. for 30 min. A slope of the increase in fluorescence between 20 and 30 min is calculated for determination of the IC50 value (inhibitor concentration at which 50% of the initial activity is blocked).
Analysis of enzymatic activity is performed by calculation of the slope of an increase in fluorescence intensity. IC50 values are calculated by plotting the enzymatic activity (as percentage from control containing 2% DMSO instead of inhibitor) against the inhibitor concentration. IC50 is defined as the inhibitor concentration blocking 50% of initial enzyme activity.

The nature of data set [2]: Caco-2 permeability assay (CacoReady kit). Particulars: human. The format is in vitro ADME. As to the method:
Permeability coefficients (Papp values) were obtained from Caco-2 barrier studies predicting oral/intestinal bioavailability of the tested compounds. The assays were performed by using CacoReady™ ready-to-use kits from ReadyCell according to the manufacturers protocol.

Data set [3] in a line: Log D shake flask method (octanol / PBS pH 7.4, HPLC). In kind it is physicochemical. To be noted: octanol/phosphate-buffered saline (PBS); octanol / PBS pH 7.4, shake flask. Here is the method:
In order to classify the inventive compounds according to their lipophilicity, Log D values (distribution coefficient) were determined by means of the well-established shake flask method, measuring the partition of a compound between an octanol and phosphate-buffered saline (PBS, pH 7.4) by HPLC.

As for `COC(=O)/C=C/CC[C@H](NC(=O)c1oc2ccccc2c1C)C(=O)Nc1cccn(CC(=O)N[C@]23C[C@H]4C5CC6CC4[C@@H](C2)[C@@H](C6)[C@@H]5C3)c1=O` (stereo in doubt) [III-74, (S,E)-methyl 7-(1-(2-(diamantane-4-amino)-2-oxoethyl)-2-oxo-1,2-dihydropyridin-3-ylamino)-6-(3-methylbenzofuran-2-carboxamido)-7-oxohept-2-enoate], the IC50 in data set [1] was under 25 nM. The Papp in data set [2] was in the range of 1 to 10 ×10⁻⁶ cm/s. The logD in data set [3] was 3 to 5.
For `COC(=O)/C=C/CC[C@H](NC(=O)c1cncn1C)C(=O)Nc1cccn(CC(=O)NC2C3CC4CC(C3)CC2C4)c1=O` (stereo partly drawn) [III-1, (S,E)-methyl 7-(1-(2-(2-adamantylamino)-2-oxoethyl)-2-oxo-1,2-dihydropyridin-3-ylamino)-6-(1-methyl-1H-imidazole-5-carboxamido)-7-oxohept-2-enoate] the same measures were under 25 nM, under 1 ×10⁻⁶ cm/s and 1 to 3.
The matching figures for `COC(=O)/C=C/CC[C@H](NC(=O)c1oc2ccccc2c1C)C(=O)Nc1cccn(CC(=O)NC2C3CC4CC(C3)CC2C4)c1=O` (stereo partly drawn) [III-2, (S,E)-methyl 7-(1-(2-(2-adamantylamino)-2-oxoethyl)-2-oxo-1,2-dihydropyridin-3-ylamino)-6-(3-methylbenzofuran-2-carboxamido)-7-oxohept-2-enoate]: under 25 nM, 1 to 10 ×10⁻⁶ cm/s and 3 to 5.
As to `COC(=O)/C=C/CC[C@H](NC(=O)c1oc2ccccc2c1Cl)C(=O)Nc1cccn(CC(=O)NC2C3CC4CC(C3)CC2C4)c1=O` (stereo partly drawn) [III-3, (S,E)-methyl 6-(3-chlorobenzofuran-2-carboxamido)-7-(1-(2-(2-adamantylamino)-2-oxoethyl)-2-oxo-1,2-dihydropyridin-3-ylamino)-7-oxohept-2-enoate], the IC50 in data set [1] was under 25 nM. Besides, in data set [2], the Papp lay within 1 to 10 ×10⁻⁶ cm/s. In data set [3], this compound came in with a logD of 3 to 5.
The matching figures for `COC(=O)/C=C/CC[C@H](NC(=O)c1cc2c(Br)cccc2o1)C(=O)Nc1cccn(CC(=O)NC2C3CC4CC(C3)CC2C4)c1=O` (stereo partly drawn) [III-4, (S,E)-methyl 6-(4-bromobenzofuran-2-carboxamido)-7-(1-(2-(2-adamantylamino)-2-oxoethyl)-2-oxo-1,2-dihydropyridin-3-ylamino)-7-oxohept-2-enoate]: under 25 nM, 1 to 10 ×10⁻⁶ cm/s and 3 to 5.
The matching figures for `COC(=O)/C=C/CC[C@H](NC(=O)c1cc2ccccc2s1)C(=O)Nc1cccn(CC(=O)NC2C3CC4CC(C3)CC2C4)c1=O` (stereo partly drawn) [III-5, (S,E)-methyl 6-(benzo[b]thiophene-2-carboxamido)-7-(1-(2-(2-adamantylamino)-2-oxoethyl)-2-oxo-1,2-dihydropyridin-3-ylamino)-7-oxohept-2-enoate]: under 25 nM, 1 to 10 ×10⁻⁶ cm/s and 3 to 5.
`COC(=O)/C=C/CC[C@H](NC(=O)c1cc2cc(Br)ccc2s1)C(=O)Nc1cccn(CC(=O)NC2C3CC4CC(C3)CC2C4)c1=O` (stereo partly drawn) [III-6, (S,E)-methyl 6-(5-bromobenzo[b]thiophene-2-carboxamido)-7-(1-(2-(2-adamantylamino)-2-oxoethyl)-2-oxo-1,2-dihydropyridin-3-ylamino)-7-oxohept-2-enoate]: in data set [1], the IC50 is under 25 nM. Moreover, in data set [2], the Papp is 1 to 10 ×10⁻⁶ cm/s. The same compound showed a logD in data set [3] of 3 to 5.
The matching figures for `COC(=O)/C=C/CC[C@H](NC(=O)c1cc2cccc(F)c2s1)C(=O)Nc1cccn(CC(=O)NC2C3CC4CC(C3)CC2C4)c1=O` (stereo partly drawn) [III-7, (S,E)-methyl 6-(7-fluorobenzo[b]thiophene-2-carboxamido)-7-(1-(2-(2-adamantylamino)-2-oxoethyl)-2-oxo-1,2-dihydropyridin-3-ylamino)-7-oxohept-2-enoate]: under 25 nM, 1 to 10 ×10⁻⁶ cm/s and 3 to 5.
Consider `COC(=O)/C=C/CC[C@H](NC(=O)c1cc2ccccc2[nH]1)C(=O)Nc1cccn(CC(=O)NC2C3CC4CC(C3)CC2C4)c1=O` (stereo partly drawn) [III-8, (S,E)-methyl 6-(1H-indole-2-carboxamido)-7-(1-(2-(2-adamantylamino)-2-oxoethyl)-2-oxo-1,2-dihydropyridin-3-ylamino)-7-oxohept-2-enoate], for which, in data set [1], the concentration for half-maximal inhibition (IC50) was under 25 nM. In data set [2], this compound had a Papp of under 1 ×10⁻⁶ cm/s. In data set [3], the logD lay in the range of 3 to 5.
For `COC(=O)/C=C/CC[C@H](NC(=O)c1cc2c(F)c(F)ccc2[nH]1)C(=O)Nc1cccn(CC(=O)NC2C3CC4CC(C3)CC2C4)c1=O` (stereo partly drawn) [III-9, (S,E)-methyl 6-(4,5-difluoro-1H-indole-2-carboxamido)-7-(1-(2-(2-adamantylamino)-2-oxoethyl)-2-oxo-1,2-dihydropyridin-3-ylamino)-7-oxohept-2-enoate] the same measures were under 25 nM, under 1 ×10⁻⁶ cm/s and 3 to 5.
As for `COC(=O)/C=C/CC[C@H](NC(=O)c1[nH]c2ccccc2c1C)C(=O)Nc1cccn(CC(=O)NC2C3CC4CC(C3)CC2C4)c1=O` (stereo partly drawn) [III-10, (S,E)-methyl 7-(1-(2-(2-adamantylamino)-2-oxoethyl)-2-oxo-1,2-dihydropyridin-3-ylamino)-6-(3-methyl-1H-indole-2-carboxamido)-7-oxohept-2-enoate], the IC50 in data set [1] was under 25 nM. The Papp in data set [2] fell in the range of 1 to 10 ×10⁻⁶ cm/s. In data set [3], this compound returned a logD of 3 to 5.
For `COC(=O)/C=C/CC[C@H](NC(=O)c1nc2ccccc2[nH]1)C(=O)Nc1cccn(CC(=O)NC2C3CC4CC(C3)CC2C4)c1=O` (stereo partly drawn) [III-11, (S,E)-methyl 6-(1H-benzo[d]imidazole-2-carboxamido)-7-(1-(2-(2-adamantylamino)-2-oxoethyl)-2-oxo-1,2-dihydropyridin-3-ylamino)-7-oxohept-2-enoate] the same measures were 25 to 250 nM, under 1 ×10⁻⁶ cm/s and 3 to 5.
The matching figures for `COC(=O)/C=C/CC[C@H](NC(=O)C1Cc2ccccc2C1)C(=O)Nc1cccn(CC(=O)NC2C3CC4CC(C3)CC2C4)c1=O` (stereo partly drawn) [III-12, (S,E)-methyl 6-(2,3-dihydro-1H-indene-2-carboxamido)-7-(1-(2-(2-adamantylamino)-2-oxoethyl)-2-oxo-1,2-dihydropyridin-3-ylamino)-7-oxohept-2-enoate]: under 25 nM, 1 to 10 ×10⁻⁶ cm/s and 3 to 5.
Consider `COC(=O)/C=C/CC[C@H](NC(=O)c1cn[nH]n1)C(=O)Nc1cccn(CC(=O)NC2C3CC4CC(C3)CC2C4)c1=O` (stereo partly drawn) [III-102, (S,E)-methyl 7-(1-(2-(2-adamantylamino)-2-oxoethyl)-2-oxo-1,2-dihydropyridin-3-ylamino)-7-oxo-6-(1H-1,2,3-triazole-4-carboxamido)hept-2-enoate], for which the IC50 in data set [1] lay within 25 to 250 nM.
Take `CCC(CC)CNC(=O)Cn1cccc(NC(=O)[C@H](CC/C=C/C(=O)OC)NC(=O)c2cncn2C)c1=O` [Ref. 2, reference compound]: in data set [1] (DCC-assay IC50 ratio vs Ref. 3 (A8)), the “fold more potent compared to Ref. 3” value is 80 fold. In addition, the IC50 in data set [1] lay in the range of 25 to 250 nM.
